Columns and labels:
LlLtrA RT domain = target: T1, LlLtrA RT domain (Lactococcus cremoris, UniProt P0A3U0); assay: gel-based primase assay; format: biochemical; conditions: RNA template (oMZ27), gamma-phosphate FAM-labelled GTP, Mn2+
T1 construct: gene ltrA; RT domain aa 1-472, endonuclease domain removed; recombinant from E. coli; catalytic D308, D309
T1 sequence (P0A3U0 1-472): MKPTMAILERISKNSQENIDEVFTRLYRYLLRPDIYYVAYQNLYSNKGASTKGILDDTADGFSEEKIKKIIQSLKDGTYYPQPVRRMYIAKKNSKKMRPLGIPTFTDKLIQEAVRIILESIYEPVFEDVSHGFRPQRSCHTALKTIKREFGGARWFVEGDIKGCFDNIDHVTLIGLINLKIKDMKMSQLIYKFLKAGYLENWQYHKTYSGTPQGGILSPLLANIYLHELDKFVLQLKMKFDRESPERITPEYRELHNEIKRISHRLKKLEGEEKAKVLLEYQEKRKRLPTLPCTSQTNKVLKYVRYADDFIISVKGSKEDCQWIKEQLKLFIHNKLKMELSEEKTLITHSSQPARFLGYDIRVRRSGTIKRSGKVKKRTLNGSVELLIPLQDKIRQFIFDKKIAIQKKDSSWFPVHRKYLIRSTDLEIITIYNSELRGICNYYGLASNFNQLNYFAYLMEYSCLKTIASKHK

ScTy3 RT = target: T2, ScTy3 RT (Saccharomyces cerevisiae, UniProt Q99315); assay: gel-based primase assay; format: biochemical; conditions: DNA or RNA template, gamma-phosphate FAM-labelled GTP, Mn2+
T2 construct: gene TY3B-G; RT domain aa 1-339 of the mature RT from Ty3 Gag-Pol polyprotein, C-terminal MBP fusion; recombinant from E. coli
T2 sequence (Q99315 536-874): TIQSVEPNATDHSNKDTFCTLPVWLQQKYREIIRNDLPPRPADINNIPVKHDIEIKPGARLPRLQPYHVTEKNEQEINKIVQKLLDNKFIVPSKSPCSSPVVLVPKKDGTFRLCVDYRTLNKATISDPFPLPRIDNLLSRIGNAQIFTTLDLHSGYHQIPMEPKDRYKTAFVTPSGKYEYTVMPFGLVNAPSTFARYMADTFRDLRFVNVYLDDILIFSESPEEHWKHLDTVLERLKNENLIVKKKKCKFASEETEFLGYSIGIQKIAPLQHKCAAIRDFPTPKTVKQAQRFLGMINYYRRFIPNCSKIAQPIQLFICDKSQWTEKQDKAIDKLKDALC

SMILES: Nc1nc2c(ncn2[C@H]2C[C@H](O)[C@@H](COP(=O)(O)OP(=O)(O)OP(=O)(O)O)O2)c(=O)[nH]1 [dGTP]
- gel-based primase assay (LlLtrA RT domain): LlLtrA RT is an RNA-dependent primase
- gel-based primase assay (ScTy3 RT): ScTy3 RT is efficient DNA and RNA-dependent primase

— article PMC10415136, “Reverse transcriptases prime DNA synthesis” (Nucleic Acids Research, 2023)
